Columns and labels:
[1] = target: recombinant His-tagged HDAC2 (Homo sapiens, UniProt Q92769); assay type: binding; details: probe 25 µM, HDAC2 1.25 µM, Trichostatin A 125 µM (5-fold molar excess), 24 h preincubation, 254 nm UV
[2] = target: recombinant human HDAC3 (Homo sapiens, UniProt O15379); experiment: HDAC3 fluorogenic inhibition assay; details: read-out: HDAC3 %Inhibition(10µM)
recombinant human HDAC3, sequence (O15379 whole entry): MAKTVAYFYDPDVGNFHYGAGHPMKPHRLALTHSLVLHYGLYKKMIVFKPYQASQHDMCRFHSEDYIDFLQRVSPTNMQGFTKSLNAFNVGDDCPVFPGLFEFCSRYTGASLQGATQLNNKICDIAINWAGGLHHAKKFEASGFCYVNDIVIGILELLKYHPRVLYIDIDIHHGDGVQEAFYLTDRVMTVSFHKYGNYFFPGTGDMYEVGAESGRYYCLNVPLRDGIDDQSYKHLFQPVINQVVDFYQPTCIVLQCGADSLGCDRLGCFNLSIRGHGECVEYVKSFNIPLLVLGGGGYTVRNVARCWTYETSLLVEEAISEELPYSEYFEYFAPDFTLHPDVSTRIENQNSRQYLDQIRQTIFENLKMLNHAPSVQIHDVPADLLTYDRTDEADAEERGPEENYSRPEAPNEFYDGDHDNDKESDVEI
recombinant human HDAC3, sequence (Q9Y618 395-489 partner limits assumed): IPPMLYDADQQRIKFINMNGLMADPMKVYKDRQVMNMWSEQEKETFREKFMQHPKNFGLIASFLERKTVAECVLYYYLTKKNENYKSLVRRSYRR

recombinant His-tagged HDAC2, sequence (Q92769 whole entry): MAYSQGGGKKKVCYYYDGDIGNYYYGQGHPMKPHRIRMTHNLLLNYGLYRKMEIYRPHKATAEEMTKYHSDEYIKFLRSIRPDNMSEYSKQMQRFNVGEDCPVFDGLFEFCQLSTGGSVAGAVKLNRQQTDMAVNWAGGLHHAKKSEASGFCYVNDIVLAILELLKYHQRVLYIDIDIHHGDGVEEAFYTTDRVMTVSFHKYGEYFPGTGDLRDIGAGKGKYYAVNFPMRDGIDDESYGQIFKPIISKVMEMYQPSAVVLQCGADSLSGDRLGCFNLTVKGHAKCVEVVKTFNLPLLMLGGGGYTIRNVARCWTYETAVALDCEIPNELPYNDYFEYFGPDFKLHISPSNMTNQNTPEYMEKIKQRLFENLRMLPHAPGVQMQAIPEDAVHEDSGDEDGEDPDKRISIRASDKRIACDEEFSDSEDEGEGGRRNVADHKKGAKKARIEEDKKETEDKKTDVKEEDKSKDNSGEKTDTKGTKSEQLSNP

| Structure (SMILES) | biotinylation of HDAC2 in competition with Trichostatin A [1] | inhibition at 10 µM [2] |
| --- | --- | --- |
| [N-]=[N+]=NCCC(=O)Nc1ccc(C(=O)Nc2cc(N=[N+]=[N-])ccc2N)cc1 [1g] | slightly less pronounced |  |
| O=C(CCCCCCC(=O)Nc1ccccc1)NO [SAHA, suberoyl anilide hydroxamic acid] |  | 100% |

Source: PMC3401313 (Bioorganic & medicinal chemistry letters, 2012)
